Read-outs that look alike come from different tables or passages of the source.
Test system: PSMA + PC3-PIP and PSMA-PC3-flu flank xenografts
Settings: for Biodistribution, Blood / Biodistribution, Flu tumor / Biodistribution, Kidneys / Biodistribution, Lacrimal glands / Biodistribution, Pip (tumor) / Biodistribution, Salivary glands / Biodistribution, Spleen / Biodistribution, Stomach: without cold blocking agent
Description: Final compounds were purified by HPLC. […] Organs were harvested 1, 4, and 24 h post-injection (n=5 per time point).

## O=C([O-])CN1CCN(CC(=O)[O-])CCN(CC(=O)NCCCCC(=O)N(CCCC[C@H](NC(=O)N[C@@H](CCC(=O)O)C(=O)O)C(=O)O)Cc2ccc([125I])cc2)CCN(CC(=O)[O-])CC1.[Lu+3] [[^125I]VK-02-90-Lu]
1 H
  Biodistribution, Blood: 1.2 ± 0.4 % injected dose/g
  Biodistribution, Flu tumor: 0.9 ± 0.3 % injected dose/g
  Biodistribution, Kidneys: 180 ± 36 % injected dose/g
  Biodistribution, Lacrimal glands: 4.1 ± 1.3 % injected dose/g
  Biodistribution, Pip (tumor): 51 ± 8.5 % injected dose/g
  Biodistribution, Salivary glands: 1.0 ± 0.3 % injected dose/g
  Biodistribution, Spleen: 7.4 ± 2.6 % injected dose/g
  Biodistribution, Stomach: 0.7 ± 0.4 % injected dose/g
4 H
  Biodistribution, Blood: 0.06 ± 0.06 % injected dose/g
  Biodistribution, Flu tumor: 0.3 ± 0.5 % injected dose/g
  Biodistribution, Kidneys: 18.2 ± 4.9 % injected dose/g
  Biodistribution, Lacrimal glands: 0.3 ± 0.1 % injected dose/g
  Biodistribution, Pip (tumor): 27.8 ± 17 % injected dose/g
  Biodistribution, Salivary glands: 0.1 ± 0.05 % injected dose/g
  Biodistribution, Spleen: 0.6 ± 0.2 % injected dose/g
  Biodistribution, Stomach: 0.1 ± 0.1 % injected dose/g
24 H
  Biodistribution, Blood: 0.1 ± 0.01 % injected dose/g
  Biodistribution, Flu tumor: 0.03 ± 0.01 % injected dose/g
  Biodistribution, Kidneys: 3.3 ± 1.1 % injected dose/g
  Biodistribution, Lacrimal glands: 0.06 ± 0.03 % injected dose/g
  Biodistribution, Pip (tumor): 24.0 ± 6.2 % injected dose/g
  Biodistribution, Salivary glands: 0.03 ± 0.01 % injected dose/g
  Biodistribution, Spleen: 0.1 ± 0.06 % injected dose/g
  Biodistribution, Stomach: 0.04 ± 0.01 % injected dose/g
Compared with [^125I]VK-02-90
  clearance from the spleen, salivary glands, lacrimal glands and kidneys: faster clearance
